Source: US8258098B2, “Antitumoral treatments” (Pharma Mar, S.A., priority 2006, dated 2012)
Read-outs that look alike come from different tables or passages of the source.

Assays:
[1] = test system: U266B1 cell line; assay: cells; type: cell-based; settings: 72 h, read-out: IC50 (Molar)
Protocol: (§1) These cell lines were cultured in RPMI1640 medium with 10% FBS and 1% L-Glutamine. Each cell line was plated in a 96 well plates at 20,000 cell per well.
(§2) Each serial dilution was paired with 4 different concentrations of Bortezomib or Melphalan.
(§3) The plates were incubated for 3 days at 37° C. and 5% CO2. The plates were read using the Promega MTS assay system with MTS being metabolized by living cells turning into formazan which is […] at 490 nm wavelength. This is an indirect measure of cell viability. These were analyzed using the Softmax Pro program which determines cell viability based percent of control wells. This IC50 data was then transferred into the CalcuSyn program for combination index analysis. CalcuSyn compares IC50 the values of the drugs alone with that of the drugs in combination using an algorithm to determine a combination index.

[2] = test system: RPMI-8226 cell line; assay: cells; type: cell-based; settings: Homo sapiens, RPMI-8226, 72 h, read-out: IC50 (Molar)
Protocol: as §1, §2, §3

[3] = test system: SKBR3 cells; assay: MTS cytotoxicity assay, 72 hours, single agents and combinations with Aplidine; type: cell-based; settings: SKBR3, 72 hours drug exposure, read-out: IC50 (Molar)
Protocol: (§4) Day before plating cells all cultures were fed with fresh, complete growth media. On the harvest (plating) day cells were counted by Trypan Blue exclusion staining method (basic cell culture). Cells were harvested and seeded in 96 well microtiter plates at 10,000 cells per well in 190 μL of media and incubated for 24 hours to allow the cells to attach before drug addition. Cells were treated with the drugs and the cytotoxic effect was measured by the MTS Assay (Tetrazolium), which is a colorimetric method for determining the number of viable cells. After the 72 hours of incubation with drug, 25 μL of MTS+PMS solution was added to each microtiter well and incubated for 4 hours at 37° C. Plates were then removed from incubator and placed on plate shaker for 5 minutes (covered with aluminium foil for protection from light). Optical densities were read at 490 nm on spectrophotometer plate reader.
(§5) The microtiter plates were incubated for 72 hrs, at 5% CO2 and 37° C. The cytotoxic effect was measured by MTS Assay. Optical densities read at 490 nm. Normalized data was plotted and interpreted as described. Data was analysed as: • 1. Prism (Graphpad) software program was used to normalized the data to control values (100%=cell growth in the absence of agent (drug); 0%=blank control). • 2. Data normalized were plotted as scatter plots.
(§6) Conversely, antagonism was concluded when inhibition was lower than both maxima. […] Statistical significance was assessed by performing a student's t-test on the inhibition at each dose ratio versus the inhibition at the maximum for each drug.
(§7) As a visual aid, response values were plotted on a scatter plot with dose ratios given on the x-axis and % response values on the y-axis. […] In cases where response values at the two endpoints were approximately equivalent, points lying above or below this predicted line of additivity could be interpreted as representing antagonistic or synergistic drug interaction, respectively.

[4] = test system: A549 cells; assay: as above; type: cell-based; settings: A549, 72 hours drug exposure, read-out: IC50 (Molar)
Protocol: as §4, §5, §6, §7

[5] = test system: HT29 cells; assay: as above; type: cell-based; settings: HT29, 72 hours drug exposure, read-out: IC50 (Molar)
Protocol: as §4, §5, §6, §7

[6] = test system: PC3 cells; assay: as above; type: cell-based; settings: PC3, 72 hours drug exposure, read-out: IC50 (Molar)
Protocol: as §4, §5, §6, §7

[7] = test system: MX1 cells; assay: as above; type: cell-based; settings: MX1, 72 hours drug exposure, read-out: IC50 (Molar)
Protocol: as §4, §5, §6, §7

[8] = test system: HL60 cells; assay: as above; type: cell-based; settings: HL60, 72 hours drug exposure, read-out: IC50 (Molar)
Protocol: as §4, §5, §6, §7

[9] = test system: MOLT3 cells; assay: as above; type: cell-based; settings: MOLT3, 72 hours drug exposure, read-out: IC50 (Molar)
Protocol: as §4, §5, §6, §7

[10] = test system: MOLT-3 cells; assay: MTS assay Example 2, single agents and combinations; type: cell-based; settings: Homo sapiens; MOLT-3, MTS; read-out: IC50 (Molar)
Protocol: (§8) The day before plating cells all cultures were fed with fresh, complete growth media. On the harvest (plating) day cells were counted by Trypan Blue exclusion staining method.
(§9) Cells were harvested and seeded in 96 well microtiter plates at 15,000 cells per well in 190 μl of media and incubated for 24 hours to allow the cells to attach before drug addition.
(§10) The cytotoxic effect was measured by the MTS Assay (Tetrazolium), which is a colorimetric method for determining the number of viable cells.
(§11) After 72 hours of incubation with tested agents 25 μl of MTS+PMS solution was added to each microtiter well and incubated for 4 hours at 37° C. Plates were then removed from incubator and placed on plate shaker for 5 minutes (covered with aluminum foil for protection from light). Optical densities were read at 490 nm on spectrophotometer plate reader. Data was analyzed as: • 1. Prism (Graphpad) software program was used to normalized the data to control values (100%=cell growth in the absence of agent (drug); 0%=blank control). • 2. Data normalized were plotted as scatter plots.
as §6
as §7, with “interaction” for “interaction,”

[11] = test system: RAMOS cells; assay: as above; type: cell-based; settings: Homo sapiens, read-out: IC50 (Molar)
Protocol: as §8, §9, §10, §11, §6
as §7, with “interaction” for “interaction,”

[12] = test system: RPMI 8226 cells; assay: as above; type: cell-based; settings: Homo sapiens; RPMI 8226, MTS; read-out: IC50 (Molar)
Protocol: as §8, §9, §10, §11, §6
as §7, with “interaction” for “interaction,”

[13] = test system: HUNS-1 cells; assay: as above; type: cell-based; settings: HuNS1; HUNS-1, MTS; read-out: IC50 (Molar)
Protocol: as §8, §9, §10, §11, §6
as §7, with “interaction” for “interaction,”

[14] = test system: MC116 cells; assay: as above; type: cell-based; settings: Homo sapiens, read-out: IC50 (Molar)
Protocol: as §8, §9, §10, §11, §6
as §7, with “interaction” for “interaction,”

[15] = test system: K562 cells; assay: as above; type: cell-based; settings: Homo sapiens, read-out: IC50 (Molar)
Protocol: as §8, §9, §10, §11, §6
as §7, with “interaction” for “interaction,”

[16] = test system: U937 cells; assay: as above; type: cell-based; settings: Homo sapiens, U-937, read-out: IC50 (Molar)
Protocol: as §8, §9, §10, §11, §6
as §7, with “interaction” for “interaction,”

[17] = test system: HL-60 cells; assay: as above; type: cell-based; settings: Homo sapiens; HL-60, MTS; read-out: IC50 (Molar)
Protocol: as §8, §9, §10, §11, §6
as §7, with “interaction” for “interaction,”

[18] = test system: NCI-H929 cells; assay: as above; type: cell-based; settings: Homo sapiens, read-out: IC50 (Molar)
Protocol: as §8, §9, §10, §11, §6
as §7, with “interaction” for “interaction,”

[19] = test system: U266B-1 cells; assay: as above; type: cell-based; settings: U266B-1, MTS; read-out: IC50 (Molar)
Protocol: as §8, §9, §10, §11, §6
as §7, with “interaction” for “interaction,”

[20] = test system: H9 cells; assay: MTS assay Example 2, single agents; type: cell-based; settings: Homo sapiens, read-out: IC50 (Molar)
Protocol: as §8, §9, §10, §11

[21] = test system: HUT78 cells; assay: MTS assay Example 2, single agents; type: cell-based; settings: Homo sapiens, read-out: IC50 (Molar)
Protocol: as §8, §9, §10, §11

[22] = test system: MOLT4 cell line; assay: MTS assay with CalcuSyn combination index, leukemia; type: cell-based; settings: Homo sapiens, MOLT-4, read-out: IC50 (Molar)
Protocol: (§12) These cell lines were cultured in RPMI1640 medium with 10% FBS and 2 mM L-Glutamine. Each cell line was plated in a 96 well plates at 20,000 cell per well.
(§13) Each serial dilution was paired with 4 different concentrations of Idarubicin.
as §3

[23] = test system: K562 cell line; assay: as above; type: cell-based; settings: Homo sapiens, K562, read-out: IC50 (Molar)
Protocol: as §12, §13, §3

[24] = test system: RL human lymphoma cells; assay: Antitumor efficacy against subcutaneous-implanted lymphoma xenograft; type: in vivo; settings: median tumor weight, Aplidine 60 μg/kg/dose IP q1d × 9 day 15, 28, Rituximab 20 mg/kg/dose IP q3d × 2 day 15, 22, 29, 36
Text: The purpose of this study was to evaluate the antitumor efficacy of Aplidine when administered in combination with rituximab against subcutaneous-implanted RL human lymphoma cells in […], SCID mice.
(§14) The animals were housed in microisolator cages, up to five per cage in a 12-hour light/dark cycle. Six-weeks-old male, SCID mice were acclimated in the laboratories for one week prior to the experiment.
Each mouse was inoculated s.c. near the right flank with RL human lymphoma cells from an in vitro cell culture using a 23-gauge needle. Each mouse received 1.0×10^7 cells resuspended in 0.2 mL of Matrigel®. […] The cell count was determined with a Coulter Model Z1 cell counter and viability was measured following propidium iodide staining and analyzed using a Beckman Coulter EPICS XL flow cytometer. […]
Animals were observed daily and clinical signed were noted. The s.c. tumors were measured and the animals were weighed twice weekly starting with the first day of treatment, Day 15. Tumor volume was determined by caliper measurements (mm) and using the formula for an ellipsoid sphere as described in Example 7.

[25] = test system: RPMI 8226 human myeloma cells; assay: Antitumor efficacy against subcutaneous-implanted myeloma xenograft; type: in vivo, male, SCID mice; settings: RPMI 8226 xenograft, median tumor weight; Aplidine 60 μg/kg/dose IP q1d × 9 day 18, 38; Bortezomib 0.35 mg/kg/dose IV
Protocol: as §14
Each mouse received 2×10^7 cells resuspended in 0.2 mL of Matrigel®. […] Cells were harvested after four passages in culture. The cells were removed from the flasks, placed in 50-mL centrifuge tubes and centrifuged at 1,000 rpm for 10 minutes in a refrigerated centrifuge. The cell pellets were resuspended in fresh complete medium. The cell count and viability were determined with a Beckman Coulter VI CELL XR cell counter and viability analyzer. The cell suspension was recentrifuged, and the cell pellet was resuspended in Matrigel® at a cell density of 1.0×10^8 cells/mL and placed on wet ice.
The day of tumor cell inoculation was designated as Day 0. […] Those animals selected with tumors in the proper size range were assigned to four treatment groups so that the median tumor weights on the first day of treatment were as close to each other as possible. […]
Animals were observed daily and clinical signed were noted. The s.c. tumors were measured and the animals were weighed twice weekly starting with the first day of treatment, Day 18 after tumor cell inoculation.

Compound | IC50 [3] [µM] | IC50 [4] [µM] | IC50 [5] [µM] | IC50 [6] [µM] | IC50 [7] [µM] | IC50 [8] [µM] | IC50 [9] [µM] | further results
N[C@@H](Cc1ccc(N(CCCl)CCCl)cc1)C(=O)O [Melphalan] | – | – | – | – | – | – | – | IC50 [1]: 0.00316 µM; IC50 [2]: 16.1 µM
N.N.[Cl][Pt][Cl] [cisplatin] | 7 | 6 | 720 | 87 | 170 | 12 | 0.57 | –
COc1cc([C@@H]2c3cc4c(cc3[C@@H](O[C@@H]3O[C@@H]5CO[C@@H](C)O[C@H]5[C@H](O)[C@H]3O)[C@H]3COC(=O)[C@H]23)OCO4)cc(OC)c1O [VP16, etoposide] | – | – | – | – | – | – | – | IC50 [10]: 0.024 µM; IC50 [11]: 0.11 µM; IC50 [12]: 0.37 µM; IC50 [13]: 3.1 µM; IC50 [14]: 0.23 µM; IC50 [15]: 7.6 µM; IC50 [16]: 0.44 µM; IC50 [17]: 2 µM; IC50 [18]: 2.4 µM; IC50 [19]: 5.9 µM; IC50 [20]: 0.73 µM; IC50 [21]: 1.4 µM
Nc1ccn([C@@H]2O[C@H](CO)[C@@H](O)[C@@H]2O)c(=O)n1 [AraC, cytosine arabinoside] | > 100 | > 100 | > 100 | > 100 | > 100 | 10 | 0.22 | –
CC(=O)[C@]1(O)Cc2c(O)c3c(c(O)c2[C@@H](O[C@H]2C[C@H](N)[C@H](O)[C@H](C)O2)C1)C(=O)c1ccccc1C3=O [Idarubicin] | – | – | – | – | – | – | – | IC50 [22]: 0.05 nM; IC50 [23]: 0.0633 µM
Rituximab: Rituxan® (Rituximab), standard agent | – | – | – | – | – | – | – | % T/C on day 24 [24]: 95%; % T/C on day 38 [24]: 102%
CC(C)C[C@H](NC(=O)[C@H](Cc1ccccc1)NC(=O)c1cnccn1)B(O)O [Bortezomib] | – | – | – | – | – | – | – | IC50 ([1]; U2661, MTS): 16.6 µM; IC50 ([2]; RPMI8226, MTS): 0.00229 µM; % T/C on day 27 [25]: 70%; % T/C on day 48 [25]: 67%
arsenic trioxide | 100 | 420 | 80 | 1200 | 97 | 20 | 3.7 | –
CCc1c2c(nc3ccc(O)cc13)-c1cc3c(c(=O)n1C2)COC(=O)[C@]3(O)CC [SN38, 7-ethyl-10-hydroxycamptothecin] | < 1e-05 | 1300 | 0.12 | 46 | 0.15 | < 1 | 1 | –
